Among the data in ChEMBL document CHEMBL4725253, “Discovery of quinoline-based irreversible BTK inhibitors” (Bioorg Med Chem Lett, 2020) are EC50 and IC50 values, retold here.

Experiment [1] in a line: Inhibition of anti-human alphaIgM-stimulated MIP1beta production in human Ramos B cells preincubated for 1 hr followed by anti-human IgM stimulation for 6 hrs by ELISA. In kind it is functional, cell-based.
Experiment [2] has as its target T1, Epidermal growth factor receptor (Homo sapiens, UniProt P00533). The experiment is described as follows: Inhibition of EGFR (unknown origin) expressed in baculovirus system using fluorescein labeled PDGFR-tide substrate peptide preincubated for 60 mins followed by ATP addition and measured after 60 mins by IMAP assay.
The target in experiment [3] is T2, Tyrosine-protein kinase BTK (Homo sapiens, UniProt Q06187). The experiment is described as follows: Inhibition of human recombinant full length N-terminal His6-tagged BTK expressed in baculovirus infected Sf9 cells using fluorescein labeled Blk/Lyntide substrate preincubated with enzyme for 60 mins followed by further incubation with substrate and ATP for 120 mins by IMAP assay.
T2 sequence (Q06187 whole entry): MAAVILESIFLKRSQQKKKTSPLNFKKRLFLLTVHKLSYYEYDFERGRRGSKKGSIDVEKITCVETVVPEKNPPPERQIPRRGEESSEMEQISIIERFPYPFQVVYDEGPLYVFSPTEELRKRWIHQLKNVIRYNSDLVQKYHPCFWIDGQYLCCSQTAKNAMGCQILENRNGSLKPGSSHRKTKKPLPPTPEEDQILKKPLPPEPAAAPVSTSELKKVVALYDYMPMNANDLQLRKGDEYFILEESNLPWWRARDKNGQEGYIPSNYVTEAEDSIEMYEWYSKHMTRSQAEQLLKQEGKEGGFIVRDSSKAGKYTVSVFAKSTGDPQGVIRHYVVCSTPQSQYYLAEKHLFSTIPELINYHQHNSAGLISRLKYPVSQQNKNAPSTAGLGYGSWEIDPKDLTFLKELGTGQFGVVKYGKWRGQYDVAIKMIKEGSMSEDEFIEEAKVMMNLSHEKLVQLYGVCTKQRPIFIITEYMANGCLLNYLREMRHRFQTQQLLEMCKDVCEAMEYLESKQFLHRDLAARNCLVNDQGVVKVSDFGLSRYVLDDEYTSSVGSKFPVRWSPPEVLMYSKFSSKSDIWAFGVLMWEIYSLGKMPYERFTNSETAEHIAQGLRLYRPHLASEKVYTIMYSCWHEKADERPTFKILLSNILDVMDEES

Experiment [4] deals with T1, Epidermal growth factor receptor. The experiment is described as follows: Inhibition of recombinant human GST-tagged EGFR (668 to 1210 residues) expressed in baculovirus expression system using Tyr 04 peptide as substrate preincubated for 1 hr by Z'-LYTE assay.
The next experiment has as its system Blood. In words: Inhibition of mouse anti-human anti-IgD-stimulated CD69 cell surface expression in human whole blood preincubated for 2 hrs followed by anti-human anti-IgD stimulation for 18 hrs by flow cytometric analysis. In kind it is functional, tissue-based.
In experiment [5] the target is T2, Tyrosine-protein kinase BTK. In words: Inhibition of His-tagged recombinant human His-tagged full length BTK expressed in baculovirus expression system using Tyr01 peptide as substrate preincubated for 1 hr by Z'lyte assay.
In experiment [6] the target is T3, Tyrosine-protein kinase Tec (Homo sapiens, UniProt P42680).
T3 sequence (P42680 whole entry): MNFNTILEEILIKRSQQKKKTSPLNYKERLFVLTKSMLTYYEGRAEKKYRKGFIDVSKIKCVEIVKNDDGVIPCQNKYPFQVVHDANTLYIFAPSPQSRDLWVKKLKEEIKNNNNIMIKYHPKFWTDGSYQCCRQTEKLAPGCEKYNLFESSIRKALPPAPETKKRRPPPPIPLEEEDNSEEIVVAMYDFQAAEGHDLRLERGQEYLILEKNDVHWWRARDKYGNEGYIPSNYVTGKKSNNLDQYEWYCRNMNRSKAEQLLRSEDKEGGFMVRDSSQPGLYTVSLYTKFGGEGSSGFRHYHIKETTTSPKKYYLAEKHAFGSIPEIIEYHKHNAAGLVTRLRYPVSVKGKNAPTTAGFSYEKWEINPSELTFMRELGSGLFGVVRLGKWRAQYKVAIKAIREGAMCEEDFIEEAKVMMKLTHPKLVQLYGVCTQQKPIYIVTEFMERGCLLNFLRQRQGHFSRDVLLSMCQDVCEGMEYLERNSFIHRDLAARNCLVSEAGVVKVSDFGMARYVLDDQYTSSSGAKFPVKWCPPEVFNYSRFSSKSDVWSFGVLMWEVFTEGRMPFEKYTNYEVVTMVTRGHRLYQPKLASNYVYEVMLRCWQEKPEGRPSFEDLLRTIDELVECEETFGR
In words: Inhibition of His-tagged recombinant human TEC expressed in baculovirus expression system preincubated for 1 hr by Z'lyte assay.

Experiment [7] addresses T4, Tyrosine-protein kinase ITK/TSK (Homo sapiens, UniProt Q08881).
T4 sequence (Q08881 whole entry): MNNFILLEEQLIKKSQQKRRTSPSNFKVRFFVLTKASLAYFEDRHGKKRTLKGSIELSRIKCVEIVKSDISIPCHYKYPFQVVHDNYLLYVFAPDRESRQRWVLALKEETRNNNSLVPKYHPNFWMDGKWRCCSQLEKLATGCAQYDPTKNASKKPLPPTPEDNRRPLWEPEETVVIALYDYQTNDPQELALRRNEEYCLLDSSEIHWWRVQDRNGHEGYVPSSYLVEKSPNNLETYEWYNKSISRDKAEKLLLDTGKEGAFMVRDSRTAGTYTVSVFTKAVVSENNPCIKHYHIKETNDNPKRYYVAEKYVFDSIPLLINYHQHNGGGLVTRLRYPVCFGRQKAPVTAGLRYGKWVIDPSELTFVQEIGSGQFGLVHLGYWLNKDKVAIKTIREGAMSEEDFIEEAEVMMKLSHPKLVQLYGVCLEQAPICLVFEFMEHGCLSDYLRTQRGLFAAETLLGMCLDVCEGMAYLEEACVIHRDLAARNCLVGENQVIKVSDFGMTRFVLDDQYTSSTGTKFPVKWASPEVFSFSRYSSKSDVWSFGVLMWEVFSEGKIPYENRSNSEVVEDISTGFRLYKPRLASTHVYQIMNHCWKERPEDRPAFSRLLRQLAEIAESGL
In words: Inhibition of recombinant full length human GST-tagged ITK expressed in baculovirus expression system using tyrosine-1 peptide as substrate preincubated for 1 hr in presence of ATP by Z'-LYTE assay.

Experiment [8] deals with T5, Tyrosine-protein kinase TXK (Homo sapiens, UniProt P42681).
T5 sequence (P42681 whole entry): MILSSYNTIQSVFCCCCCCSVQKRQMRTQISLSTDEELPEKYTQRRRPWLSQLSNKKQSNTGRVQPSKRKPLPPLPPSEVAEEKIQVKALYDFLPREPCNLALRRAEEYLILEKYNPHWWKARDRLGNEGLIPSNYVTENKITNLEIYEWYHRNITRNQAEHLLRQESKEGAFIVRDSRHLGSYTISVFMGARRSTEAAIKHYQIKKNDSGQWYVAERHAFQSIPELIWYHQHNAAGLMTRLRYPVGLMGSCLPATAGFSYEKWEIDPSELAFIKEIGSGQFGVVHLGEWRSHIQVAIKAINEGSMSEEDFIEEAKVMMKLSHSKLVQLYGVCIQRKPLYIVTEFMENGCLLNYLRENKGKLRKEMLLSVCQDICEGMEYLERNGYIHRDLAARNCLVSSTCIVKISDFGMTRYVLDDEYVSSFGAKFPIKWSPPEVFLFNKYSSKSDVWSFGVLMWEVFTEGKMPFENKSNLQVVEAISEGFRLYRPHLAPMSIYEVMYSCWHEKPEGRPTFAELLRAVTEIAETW
In words: Inhibition of recombinant human N-terminal GST-tagged TXK (260 to 527 residues) expressed in baculovirus expression system using tyrosine-6 peptide as substrate preincubated for 1 hr in presence of ATP by Z'-LYTE assay.

The target in experiment [9] is Receptor tyrosine-protein kinase erbB-2 (Homo sapiens, UniProt P04626). In words: Inhibition of His-tagged human recombinant ERBB2 (676 to 1255 residues) expressed in baculovirus expression system using Tyr 06 as substrate preincubated for 1 hr in presence of ATP by Z'-LYTE assay.
Receptor tyrosine-protein kinase erbB-2, sequence (P04626 whole entry, the tested form may be a part): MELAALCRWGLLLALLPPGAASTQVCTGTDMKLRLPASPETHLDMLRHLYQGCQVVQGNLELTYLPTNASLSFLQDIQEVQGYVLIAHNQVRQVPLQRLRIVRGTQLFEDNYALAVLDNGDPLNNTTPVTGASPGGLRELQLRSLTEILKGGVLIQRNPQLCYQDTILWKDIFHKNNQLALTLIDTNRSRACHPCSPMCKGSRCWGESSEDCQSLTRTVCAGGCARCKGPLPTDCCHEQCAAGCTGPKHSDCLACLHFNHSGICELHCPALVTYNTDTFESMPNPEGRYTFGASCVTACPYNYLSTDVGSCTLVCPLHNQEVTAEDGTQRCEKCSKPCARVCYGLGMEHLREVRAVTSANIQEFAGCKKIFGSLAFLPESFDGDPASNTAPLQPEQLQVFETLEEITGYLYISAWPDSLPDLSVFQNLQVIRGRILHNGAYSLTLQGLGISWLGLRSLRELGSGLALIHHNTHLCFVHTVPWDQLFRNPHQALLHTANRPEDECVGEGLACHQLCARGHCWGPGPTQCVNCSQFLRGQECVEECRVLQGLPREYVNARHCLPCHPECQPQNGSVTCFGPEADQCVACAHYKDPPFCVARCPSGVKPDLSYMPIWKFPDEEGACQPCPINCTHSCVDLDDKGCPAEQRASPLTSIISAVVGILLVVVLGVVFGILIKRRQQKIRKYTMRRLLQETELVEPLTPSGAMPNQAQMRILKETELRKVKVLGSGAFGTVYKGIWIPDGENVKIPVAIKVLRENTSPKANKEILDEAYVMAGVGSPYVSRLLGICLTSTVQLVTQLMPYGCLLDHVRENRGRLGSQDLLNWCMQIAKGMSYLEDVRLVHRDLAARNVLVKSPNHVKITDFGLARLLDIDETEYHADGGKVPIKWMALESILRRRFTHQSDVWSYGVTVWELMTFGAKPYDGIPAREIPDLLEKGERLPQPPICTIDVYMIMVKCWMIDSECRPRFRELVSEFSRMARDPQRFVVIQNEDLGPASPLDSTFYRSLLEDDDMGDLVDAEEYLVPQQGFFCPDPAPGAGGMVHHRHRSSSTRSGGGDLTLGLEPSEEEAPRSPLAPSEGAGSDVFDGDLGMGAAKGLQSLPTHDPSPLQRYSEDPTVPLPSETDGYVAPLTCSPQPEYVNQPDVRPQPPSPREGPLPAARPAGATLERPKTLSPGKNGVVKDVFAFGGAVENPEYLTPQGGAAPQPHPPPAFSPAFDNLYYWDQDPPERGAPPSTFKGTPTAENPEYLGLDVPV
The target of experiment [10] is Receptor tyrosine-protein kinase erbB-4 (Homo sapiens, UniProt Q15303). In words: Inhibition of recombinant human N-terminal GST-tagged ERBB4 catalytic domain (708 to 993 residues) expressed in baculovirus expression system using tyrosine-1 peptide as substrate preincubated for 1 hr in presence of ATP by Z'-LYTE assay.
Receptor tyrosine-protein kinase erbB-4, sequence (Q15303 whole entry, the tested form may be a part): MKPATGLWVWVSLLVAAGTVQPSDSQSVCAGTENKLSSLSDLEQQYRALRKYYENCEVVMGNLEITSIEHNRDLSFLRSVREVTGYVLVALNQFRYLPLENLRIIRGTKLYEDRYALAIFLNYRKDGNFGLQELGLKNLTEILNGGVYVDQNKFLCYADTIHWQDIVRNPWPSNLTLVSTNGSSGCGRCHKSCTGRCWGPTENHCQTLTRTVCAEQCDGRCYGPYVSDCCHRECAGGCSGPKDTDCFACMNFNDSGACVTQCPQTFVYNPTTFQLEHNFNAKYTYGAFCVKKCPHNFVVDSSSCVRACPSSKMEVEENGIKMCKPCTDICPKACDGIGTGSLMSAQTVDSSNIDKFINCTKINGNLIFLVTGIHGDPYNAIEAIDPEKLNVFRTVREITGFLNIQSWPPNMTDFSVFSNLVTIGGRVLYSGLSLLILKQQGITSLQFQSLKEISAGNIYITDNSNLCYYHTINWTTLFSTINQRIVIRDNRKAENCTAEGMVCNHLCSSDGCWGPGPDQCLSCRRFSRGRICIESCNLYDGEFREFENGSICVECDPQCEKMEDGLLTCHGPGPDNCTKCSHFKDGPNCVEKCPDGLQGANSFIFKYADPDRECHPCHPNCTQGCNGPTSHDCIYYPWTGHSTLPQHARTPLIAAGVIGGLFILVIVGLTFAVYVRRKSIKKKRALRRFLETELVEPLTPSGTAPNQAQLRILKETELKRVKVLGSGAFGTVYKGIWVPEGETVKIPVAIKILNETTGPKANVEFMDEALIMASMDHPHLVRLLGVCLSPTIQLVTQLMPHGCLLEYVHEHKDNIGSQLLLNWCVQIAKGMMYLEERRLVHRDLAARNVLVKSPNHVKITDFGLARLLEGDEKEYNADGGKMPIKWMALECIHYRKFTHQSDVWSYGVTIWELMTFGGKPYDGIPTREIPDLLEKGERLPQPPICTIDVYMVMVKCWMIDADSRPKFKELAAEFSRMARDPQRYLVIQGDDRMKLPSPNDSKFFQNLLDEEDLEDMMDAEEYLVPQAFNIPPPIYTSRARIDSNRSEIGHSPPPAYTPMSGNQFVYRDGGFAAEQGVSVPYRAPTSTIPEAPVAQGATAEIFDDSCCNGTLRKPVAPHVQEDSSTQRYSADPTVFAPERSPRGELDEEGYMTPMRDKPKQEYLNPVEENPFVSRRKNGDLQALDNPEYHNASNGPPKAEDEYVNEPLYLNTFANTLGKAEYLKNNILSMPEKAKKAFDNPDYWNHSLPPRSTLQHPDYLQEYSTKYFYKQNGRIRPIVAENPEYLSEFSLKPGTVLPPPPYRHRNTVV
The target of experiment [11] is Tyrosine-protein kinase Blk (Homo sapiens, UniProt P51451). In words: Inhibition of recombinant full length human His-tagged BLK cytoplasmic domain expressed in baculovirus expression system using tyrosine-1 peptide as substrate preincubated for 1 hr in presence of ATP by Z'-LYTE assay.
Tyrosine-protein kinase Blk, sequence (P51451 whole entry, the tested form may be a part): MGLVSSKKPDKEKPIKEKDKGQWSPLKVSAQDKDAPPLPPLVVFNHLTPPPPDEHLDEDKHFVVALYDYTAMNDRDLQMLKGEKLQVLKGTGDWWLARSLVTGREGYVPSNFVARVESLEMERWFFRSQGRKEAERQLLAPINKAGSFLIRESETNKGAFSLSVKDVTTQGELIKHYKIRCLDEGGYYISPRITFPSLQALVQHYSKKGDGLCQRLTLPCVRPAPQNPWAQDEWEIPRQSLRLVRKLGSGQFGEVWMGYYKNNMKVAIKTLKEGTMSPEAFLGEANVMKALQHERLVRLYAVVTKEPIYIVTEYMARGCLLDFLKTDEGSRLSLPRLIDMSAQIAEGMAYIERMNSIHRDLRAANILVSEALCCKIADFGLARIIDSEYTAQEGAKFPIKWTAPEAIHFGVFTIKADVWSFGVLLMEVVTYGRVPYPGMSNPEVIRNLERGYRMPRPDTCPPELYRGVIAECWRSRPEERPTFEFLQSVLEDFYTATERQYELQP

T1 sequence (P00533 whole entry): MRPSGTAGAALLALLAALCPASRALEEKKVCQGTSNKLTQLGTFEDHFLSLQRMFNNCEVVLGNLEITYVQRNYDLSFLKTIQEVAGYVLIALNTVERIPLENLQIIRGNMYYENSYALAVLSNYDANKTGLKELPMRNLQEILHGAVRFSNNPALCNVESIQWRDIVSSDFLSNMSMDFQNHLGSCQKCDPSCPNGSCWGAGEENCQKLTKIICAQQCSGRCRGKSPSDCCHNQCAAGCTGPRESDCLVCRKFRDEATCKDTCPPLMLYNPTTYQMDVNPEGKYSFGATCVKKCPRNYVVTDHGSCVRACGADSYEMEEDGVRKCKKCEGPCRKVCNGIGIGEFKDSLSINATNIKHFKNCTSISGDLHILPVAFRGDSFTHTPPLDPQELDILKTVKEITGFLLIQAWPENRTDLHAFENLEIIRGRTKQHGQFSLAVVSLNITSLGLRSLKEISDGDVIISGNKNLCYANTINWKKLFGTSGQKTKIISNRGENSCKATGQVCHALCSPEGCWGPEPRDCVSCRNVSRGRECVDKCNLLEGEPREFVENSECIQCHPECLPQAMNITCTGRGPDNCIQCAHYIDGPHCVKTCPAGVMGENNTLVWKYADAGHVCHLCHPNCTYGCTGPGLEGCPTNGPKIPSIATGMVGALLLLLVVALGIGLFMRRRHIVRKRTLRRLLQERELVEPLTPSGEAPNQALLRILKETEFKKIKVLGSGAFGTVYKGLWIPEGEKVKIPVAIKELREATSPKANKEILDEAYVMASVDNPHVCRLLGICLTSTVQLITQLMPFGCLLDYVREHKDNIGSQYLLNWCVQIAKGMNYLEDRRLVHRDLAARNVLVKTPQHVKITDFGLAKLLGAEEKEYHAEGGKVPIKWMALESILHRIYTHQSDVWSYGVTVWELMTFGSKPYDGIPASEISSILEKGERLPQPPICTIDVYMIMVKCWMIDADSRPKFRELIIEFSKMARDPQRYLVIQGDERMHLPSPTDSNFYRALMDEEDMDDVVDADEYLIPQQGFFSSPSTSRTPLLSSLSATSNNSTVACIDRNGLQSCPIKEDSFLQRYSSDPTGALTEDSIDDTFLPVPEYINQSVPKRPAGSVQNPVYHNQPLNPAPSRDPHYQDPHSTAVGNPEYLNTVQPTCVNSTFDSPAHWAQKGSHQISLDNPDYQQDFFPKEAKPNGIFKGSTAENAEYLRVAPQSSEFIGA

As usually defined, the EC50 is the concentration at which the effect is half-maximal. A higher EC50 goes with a need for much substance. The term IC50 denotes the concentration that inhibits the measured activity by half. As to `COc1cc2nccc(Oc3ccc(C(=O)Nc4ccccn4)cc3)c2cc1NC(=O)C#CCCN1CCOCC1`, the EC50 in experiment [1] came to 4.1 nM; in the experiment on Blood, 13 nM. Besides, the IC50 in experiment [2] turned out to be 33 nM; in experiment [3] it was 1.6 nM; in experiment [4], 138 nM; in [5], 1.5 nM; in experiment [6] it was 184 nM; in experiment [7], 916 nM. For the same compound, the IC50 amounted to 19 nM in experiment [8], 41 nM in experiment [9], 901 nM in experiment [10] and 8.3 nM in experiment [11].
For `C=CC(=O)Nc1ccc2nccc(Oc3ccc(C(=O)Nc4cc(CC)ccn4)cc3)c2c1`, the values for the EC50 (in [1]; with Blood) were 22 nM and 167 nM, respectively. For the same compound, the IC50 in experiment [2] was 200 nM; in experiment [3], 1.2 nM; in [4], 958 nM; in experiment [5], 4 nM; in experiment [6], 38 nM; in [7], more than 1000 nM. For the same compound, the IC50 was determined as 294 nM in experiment [8], 268 nM in experiment [9], 16 nM in experiment [10] and 21.2 nM in experiment [11].
On to `CC#CC(=O)Nc1cc2c(Oc3ccc(C(=O)Nc4ccccn4)cc3)ccnc2cc1OCCN1CCOCC1`, for which the EC50 in experiment [1] worked out at 15 nM; with Blood, 74 nM. Moreover, the IC50 in experiment [2] was more than 1000 nM; in experiment [3] it was 0.54 nM; in [4], more than 1000 nM; in experiment [5], 8.3 nM; in experiment [6], 219 nM; in experiment [7], more than 1000 nM. The IC50 in experiment [8] is 229 nM; in experiment [9], more than 1000 nM; in experiment [10], 37 nM; in experiment [11], 72 nM.
